Holding throughout (assay): growth of human tumour cells (NCI), 48 h
Assay [1] concerns UACC-62 melanoma.
In assay [2] the test system is MALME-3M melanoma.
In assay [3] the test system is A549 NSCLC.
The test system of assay [4] is EKVX NSCLC.
In assay [5] the test system is NCI/ADR-RES ovarian.
In assay [6] the test system is M14 melanoma.
In assay [7] the test system is SNB-75 CNS.
Assay [8] has as its system HT29 colon.
Assay [9] concerns RPMI-8226 leukemia.

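48-hour exposure; five concentrations; linearly interpolated endpoints. At the GI50, growth is halved. TGI denotes the concentration required for complete inhibition of growth.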

Turning to `CC(=O)NC1C(OCc2ccccc2)OC(CO)C(O)C1OCC(=O)NC(C)C(=O)NC(CCC(=O)OCCNC(=O)c1cccc2cc3ccccc3nc12)C(N)=O` (stereo not drawn), the TGI in assay [1] amounted to 34.3 µM; in assay [2], 31.4 µM; in assay [3], 23.4 µM; in assay [4], 62.2 µM; in [5] it was 68.1 µM; in assay [6] it was 42.1 µM. The TGI is 51.1 µM in assay [7], above 100 µM in assay [8] and 19.3 µM in assay [9].

Regarding `Cc1ccc(-c2n[nH]c(=O)n2N)cc1`, the TGI in assay [1], in [2], in assay [3], in assay [4], in [5] and in assay [6] was above 100 µM in each case. For the same molecule, the TGI in assay [7], in [8] and in assay [9] was above 100 µM throughout.

Regarding `CNC(=S)N/N=C(\C)c1ccc(OC)cc1O`, the TGI in [1], in [2], in assay [3], in assay [4], in assay [5] and in assay [6] was above 100 µM in each case. Also, the TGI in [7], in assay [8] and in assay [9] was above 100 µM in each case.

Regarding `CNNC1=NS(=O)(=O)c2cc(C(=O)OC)c(Cl)cc2S1`, the TGI in [1], in assay [2], in assay [3], in [4], in [5] and in [6] was above 10 µM each time. The TGI in assay [7], in [8] and in assay [9] was above 10 µM each time.

`Clc1ccc(OCc2nnc(CCCCCCCCc3nnc(COc4ccc(Cl)cc4)o3)o2)cc1`: the TGI in assay [1], in assay [2], in assay [3], in [4], in assay [5] and in [6] was above 100 µM each time. Besides, the TGI in assay [7], in assay [8] and in [9] was above 100 µM in each case.

Turning to `CCOc1ccccc1N=NC1C(=O)N(C(=O)CC(=O)Nc2ccccc2Cl)N=C1C` (stereo not drawn), the TGI is above 100 µM in assay [1]; above 100 µM in assay [2]; above 100 µM in [3]; 80.9 µM in assay [4]; above 100 µM in assay [5]; above 100 µM in [6]. Besides, the TGI in assay [7], in assay [8] and in [9] was above 100 µM each time.

As to `COc1ccc(-c2c(N)n(-c3cc(OC)cc(OC)c3)c(=O)c3cc([N+](=O)[O-])ccc23)cc1`, the TGI in assay [1], in assay [2], in assay [3], in assay [4], in assay [5] and in [6] was above 100 µM in each case. Moreover, the TGI in assay [7], in [8] and in assay [9] was above 100 µM throughout.

On to `Cc1nnc2sc(-c3ccc(N)cc3)nn12`, for which the TGI in [1], in [2], in assay [3], in assay [4], in [5] and in assay [6] was above 100 µM throughout. The TGI in assay [7] is 95.7 µM; in [8], above 100 µM; in assay [9] it was above 100 µM.

`COC(=O)c1c(C)cccc1C1CN=NC12Cc1c(C)cccc1C2=O` (stereo not drawn): the TGI is above 100 µM in assay [1]; above 100 µM in [2]; above 100 µM in assay [3]; 79.7 µM in [4]; above 100 µM in [5]; above 100 µM in assay [6]. The TGI in [7], in assay [8] and in assay [9] was above 100 µM each time.

As for `COc1cccc(NC(=O)c2c(SC)n[nH]c2N)c1`, the TGI in [1], in assay [2], in assay [3], in assay [4], in assay [5] and in assay [6] was above 100 µM each time. The TGI in [7], in [8] and in [9] was above 100 µM throughout.

On to `Cc1ccccc1N=Nc1ccc(N=Nc2c(O)ccc3cc(S(=O)(=O)O)cc(S(=O)(=O)O)c23)c(C)c1`, for which the TGI in [1], in assay [2], in [3], in assay [4], in assay [5] and in assay [6] was above 100 µM throughout. The TGI in assay [7], in assay [8] and in assay [9] was above 100 µM throughout.

With `Cc1nc(SCC(=O)Nc2ccccc2)c2sc(=S)n(-c3ccccc3)c2n1`, the TGI in [1], in assay [2], in assay [3], in assay [4], in assay [5] and in assay [6] was above 10 µM each time. The TGI in assay [7], in assay [8] and in [9] was above 10 µM throughout.

On to `COc1ccc(C(=O)N=C2N(c3ccccc3)C(=Nc3ccccc3)C(=Nc3ccccc3)N2c2ccccc2)cc1`, for which the TGI in assay [1] is above 100 µM; in assay [2], above 58.3 µM; in [3], above 100 µM; in assay [4] it was above 100 µM; in assay [5], above 100 µM; in [6], above 65.2 µM. For the same molecule, the TGI in [7] is 27.2 µM; in assay [8] it was above 100 µM; in assay [9], above 100 µM.

For `COc1ccc(C(F)(F)F)cc1NC(=O)O/N=C(/Cl)C(C)C`, the TGI in [1] came out at 36.7 µM; in assay [2], 24.7 µM; in assay [3] it was 40 µM; in assay [4] it was 33.6 µM; in assay [5] it was 56.5 µM; in [6], 36 µM. Besides, the TGI in assay [7] turned out to be 44.4 µM; in [8], 53.3 µM; in [9], 6.05 µM.

For the molecule `Cc1c2ccccc2nc2[nH]c3ccncc3c12`, the TGI in assay [1] is 74.8 µM; in assay [2], 66.6 µM; in assay [3], above 100 µM; in assay [4] it was 98.5 µM; in assay [5], 72.4 µM; in assay [6], 85.7 µM. Besides, the TGI in assay [7] is above 100 µM; in [8], above 100 µM; in [9], 77.7 µM.

On to `OC(CCN1CCN(CCOC(c2ccc(F)cc2)c2ccc(F)cc2)CC1)c1ccccc1` (stereo not drawn), for which the TGI in assay [1] is 28.2 µM; in assay [2] it was 26.8 µM; in [3], 31 µM; in assay [4], 26.1 µM; in assay [5] it was 26.8 µM; in assay [6] it was 28 µM. In addition, the TGI in assay [7] was found to be 27.5 µM; in [8] it was 21.6 µM; in assay [9], 43 µM.

Take `COC(=O)c1ccc(/C=N/c2cc(C)nn2-c2ccccc2)cc1`: the TGI in assay [1], in assay [2], in assay [3], in [4], in [5] and in assay [6] was above 100 µM throughout. In addition, the TGI was 96.8 µM in [7], 92.1 µM in assay [8] and above 100 µM in assay [9].

For `COc1cc(CSc2ccc(O)cc2)cc(O)c1O`, the TGI in assay [1] is 61.2 µM; in [2], above 100 µM; in assay [3] it was above 100 µM; in assay [4], above 100 µM; in assay [5], 71.3 µM; in assay [6], 43.7 µM. Besides, the results for the TGI in assay [7], in [8] and in assay [9] were above 100 µM, 46.8 µM and 56.3 µM, respectively.

Take `COc1cccc2c1[C@H](OC)[C@]13O[C@@]1(C2=O)[C@H](O)[C@H](C)[C@@](O)(C(=O)[C@@H]1O[C@H]1C)[C@@H]3O`: the TGI is 0.877 µM in assay [1]; 0.523 µM in assay [2]; 0.729 µM in assay [3]; 0.616 µM in assay [4]; above 100 µM in assay [5]; 0.395 µM in [6]. The TGI in [7] was found to be 0.544 µM; in [8] it was 1.11 µM; in [9], 0.411 µM. Also, the results for the GI50 in [6] and in assay [8] were 0.197 µM and 0.251 µM, respectively.

As for `CCOC(=O)c1c(N2CCOCC2)[nH]c(=O)c(C(c2ccc(N(C)C)cc2)c2c(O)c(C(=O)OCC)c(N3CCOCC3)[nH]c2=O)c1O`, the TGI in [1], in assay [2], in assay [3], in [4], in assay [5] and in [6] was above 100 µM each time. The TGI in [7], in assay [8] and in assay [9] was above 100 µM throughout.

For the molecule `O=C1C=CC(=O)c2c(O)c(Nc3ccc(OC(F)(F)F)cc3)c(Cl)c(O)c21`, the TGI in assay [1] amounted to 2.29 µM; in assay [2] it was 2.47 µM; in assay [3] it was 11.7 µM; in assay [4], 2.17 µM; in assay [5], 4.57 µM; in assay [6], 1.22 µM. The TGI in assay [7] was 1.79 µM; in assay [8], 1.28 µM; in assay [9] it was 0.285 µM.

In the case of `Oc1ccc2ccccc2c1N=Nc1ccc(N=Nc2ccccc2)cc1`, the TGI in [1], in assay [2], in assay [3], in assay [4], in assay [5] and in assay [6] was above 100 µM throughout. The TGI in [7], in assay [8] and in assay [9] was above 100 µM each time.

Take `CCCCCCCCCCCCCC/C(=C/OCC[N+](C)(C)C)OC(C)=O` (tested in a mixture with another compound): the TGI came to 5.25 µM in [1]; 21.2 µM in [2]; 6.87 µM in assay [3]; 10.7 µM in assay [4]; 44.2 µM in assay [5]; 7.12 µM in assay [6]. Moreover, the TGI in assay [7] was 7.3 µM; in assay [8], 1.82 µM; in [9] it was 4.16 µM.

Regarding `N#CC1(C#N)C(c2ccccc2)NC23CCCCC2C1(C#N)C(=O)N3` (stereo not drawn), the TGI in [1], in [2], in [3], in assay [4], in [5] and in assay [6] was above 100 µM in each case. Further, the TGI in [7], in assay [8] and in assay [9] was above 100 µM in each case.

For `CC(C)C(OC(=O)c1cc(NC(=S)c2ccccc2)ccc1Cl)C(C)C`, the TGI in assay [1] was 38.9 µM; in assay [2] it was above 57.8 µM; in assay [3] it was above 94.7 µM; in assay [4] it was above 86.4 µM; in assay [5], above 100 µM; in assay [6] it was above 84.8 µM. Moreover, the TGI was 59.1 µM in assay [7], 34.4 µM in [8] and above 73.5 µM in assay [9].

As for `Fc1ccc(C(OCCN2CC3CC2CN3CCCc2ccccc2)c2ccc(F)cc2)cc1` (stereo not drawn), the TGI is 23.1 µM in assay [1]; 8.27 µM in [2]; 26.6 µM in assay [3]; 18.5 µM in assay [4]; 19.8 µM in assay [5]; 3.79 µM in [6]. Moreover, the TGI in assay [7] stood at 7.2 µM; in assay [8], 15.5 µM; in assay [9], 6.54 µM.

As to `CCOC(=O)c1c(SCC#N)n(-c2ccccc2)c(=S)n(-c2ccccc2)c1=O`, the TGI in [1], in assay [2], in assay [3], in assay [4], in [5] and in assay [6] was above 100 µM throughout. Also, the TGI in assay [7] is 90.3 µM; in assay [8], above 100 µM; in assay [9], above 100 µM.

For the molecule `S=C(NNC1=NCCCCN1)Nc1ccccc1`, the TGI in assay [1], in assay [2], in [3], in assay [4], in [5] and in assay [6] was above 100 µM in each case. Besides, the TGI in [7], in assay [8] and in assay [9] was above 100 µM throughout.

Turning to `C[C@@H]1O[C@@H]2OCC[C@@H]2C2=C1C(=O)c1ccccc1C2=O`, the TGI in assay [1] is 17.4 µM; in assay [2] it was 4.95 µM; in assay [3], 41.9 µM; in assay [4] it was 39.9 µM; in [5] it was 14 µM; in assay [6], 14.2 µM. In addition, the TGI in [7] was 41.9 µM; in [8] it was above 100 µM; in assay [9] it was 30.9 µM.

Values taken from PubChem BioAssay (NCI).
